Assay results reported in ChEMBL document CHEMBL1134503, “Synthesis, antifolate, and antitumor activities of classical and nonclassical 2-amino-4-oxo-5-substituted-pyrrolo[2,3-d]pyrimidines” (J Med Chem, 2001).

Tests used:
[1] = molecular target: Dihydrofolate reductase; T. gondii vs rat (Toxoplasma gondii) (UniProt Q920D2+Q07422); test: Ratio of binding to rat liver and Toxoplasma gondii dihydrofolate reductase
Dihydrofolate reductase [2] = molecular target: T1, Dihydrofolate reductase (Rattus norvegicus, UniProt Q920D2); test: Inhibition of rat liver dihydrofolate reductase
T1 sequence (Q920D2 whole entry): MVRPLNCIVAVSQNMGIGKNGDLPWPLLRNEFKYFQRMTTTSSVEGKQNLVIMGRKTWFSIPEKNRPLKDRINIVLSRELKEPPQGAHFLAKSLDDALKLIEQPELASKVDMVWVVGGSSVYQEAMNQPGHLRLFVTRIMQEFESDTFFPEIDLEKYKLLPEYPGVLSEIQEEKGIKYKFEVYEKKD

Dihydrofolate reductase [3] = molecular target: T2, Dihydrofolate reductase (Pneumocystis carinii, UniProt P16184); test: Inhibitory activity against Pneumocystis carinii dihydrofolate reductase
T2 sequence (P16184 whole entry): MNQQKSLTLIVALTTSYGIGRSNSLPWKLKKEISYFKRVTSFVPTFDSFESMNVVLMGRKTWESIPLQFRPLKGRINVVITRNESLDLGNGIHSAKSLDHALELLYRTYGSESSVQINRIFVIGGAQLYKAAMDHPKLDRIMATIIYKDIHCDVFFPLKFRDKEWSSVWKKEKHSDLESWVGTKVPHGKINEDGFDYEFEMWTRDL

[4] = molecular target: T3, Bifunctional dihydrofolate reductase-thymidylate synthase (Toxoplasma gondii, UniProt Q07422); test: Inhibitory activity against Toxoplasma gondii dihydrofolate reductase
T3 sequence (Q07422 whole entry): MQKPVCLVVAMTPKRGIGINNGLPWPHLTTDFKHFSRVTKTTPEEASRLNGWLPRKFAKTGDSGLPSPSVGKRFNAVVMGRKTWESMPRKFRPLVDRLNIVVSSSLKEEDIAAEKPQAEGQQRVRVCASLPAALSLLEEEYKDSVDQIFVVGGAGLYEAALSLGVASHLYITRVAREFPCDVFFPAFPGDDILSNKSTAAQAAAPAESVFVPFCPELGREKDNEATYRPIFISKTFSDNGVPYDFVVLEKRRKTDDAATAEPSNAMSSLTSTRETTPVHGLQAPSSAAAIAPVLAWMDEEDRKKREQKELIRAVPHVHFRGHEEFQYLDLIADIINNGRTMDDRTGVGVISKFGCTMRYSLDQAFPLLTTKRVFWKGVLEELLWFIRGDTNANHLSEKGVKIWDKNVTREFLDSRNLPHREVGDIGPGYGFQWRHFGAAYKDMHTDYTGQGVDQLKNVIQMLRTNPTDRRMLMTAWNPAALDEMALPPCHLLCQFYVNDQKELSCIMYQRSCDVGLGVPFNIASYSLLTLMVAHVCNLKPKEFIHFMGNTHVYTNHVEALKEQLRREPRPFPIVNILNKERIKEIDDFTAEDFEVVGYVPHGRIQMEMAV

Thymidylate synthase [5] = molecular target: Thymidylate synthase (Homo sapiens, UniProt P04818); test: Inhibitory activity against human thymidylate synthase
A253 cell line = test: Growth inhibition of A253 cell lines.; format: functional, cell-based; conditions: Homo sapiens
FaDu [6] = test: Growth inhibition of FaDu human head and neck squamous cell carcinoma cell lines.; format: functional, cell-based
CCRF-CEM [7] = test: Growth inhibition of DHFR-overexpressing cells, defined mechanisms of MTX resistance during continuous (0-120 h) exposure; format: functional, cell-based; conditions: Homo sapiens
CCRF-CEM [8] = test: Growth inhibition of CCRF-CEM cells resistant to MTX; format: functional, cell-based; conditions: Homo sapiens
CCRF-CEM [9] = test: Growth inhibition of parental CCRF-CEM cells.; format: functional, cell-based; conditions: Homo sapiens
CCRF-CEM [10] = test: Growth inhibition of […], defined mechanisms of MTX resistance during continuous (0-120 h) exposure; format: functional, cell-based; conditions: Homo sapiens
Dihydrofolate reductase [11] = molecular target: T4, Dihydrofolate reductase (Homo sapiens, UniProt P00374)
T4 sequence (P00374 whole entry): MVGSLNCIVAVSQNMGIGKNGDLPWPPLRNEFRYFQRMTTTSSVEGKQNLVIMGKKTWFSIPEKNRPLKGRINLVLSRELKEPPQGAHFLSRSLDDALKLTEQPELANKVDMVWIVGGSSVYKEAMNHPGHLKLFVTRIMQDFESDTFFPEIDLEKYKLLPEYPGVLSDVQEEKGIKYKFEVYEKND
Description: Inhibitory activity against human dihydrofolate reductase

FaDu [12] = test: Relative growth inhibition of FaDu cells at 9 uM drug concentration and in presence of 50 uM Hypoxanthine.; format: functional, Homo sapiens
FaDu [13] = test: Relative growth inhibition of FaDu cells at 9 uM drug concentration and in presence of 40 uM Thymidine.; format: functional, Homo sapiens
Thymidylate synthase [14] = molecular target: Thymidylate synthase (Escherichia coli, UniProt C3SWJ7); test: Inhibitory activity against Escherichia coli thymidylate synthase
FaDu [15] = test: Relative growth inhibition of FaDu cells at 9 uM drug concentration and in presence of thymidine and hypoxanthine.; format: functional, Homo sapiens
FaDu [16] = test: Relative growth inhibition of FaDu cells in absence of metabolite at 9 uM concentration.; format: functional, Homo sapiens
FaDu [17] = test: Relative growth inhibition of FaDu cells at 9 uM drug concentration and in presence of 10 uM Leucovorin.; format: functional, Homo sapiens

Chain of Thymidylate synthase (Homo sapiens, UniProt P04818) (P04818 whole entry): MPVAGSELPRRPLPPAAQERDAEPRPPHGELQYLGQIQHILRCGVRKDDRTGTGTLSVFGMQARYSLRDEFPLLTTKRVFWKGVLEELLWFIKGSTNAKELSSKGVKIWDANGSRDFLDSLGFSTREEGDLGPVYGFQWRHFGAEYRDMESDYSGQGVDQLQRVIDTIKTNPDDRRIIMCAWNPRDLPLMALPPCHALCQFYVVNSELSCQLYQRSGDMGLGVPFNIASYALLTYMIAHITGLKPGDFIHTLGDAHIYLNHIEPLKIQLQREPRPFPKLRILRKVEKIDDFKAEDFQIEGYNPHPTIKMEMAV
Chain of Thymidylate synthase (Escherichia coli, UniProt C3SWJ7) (C3SWJ7 whole entry): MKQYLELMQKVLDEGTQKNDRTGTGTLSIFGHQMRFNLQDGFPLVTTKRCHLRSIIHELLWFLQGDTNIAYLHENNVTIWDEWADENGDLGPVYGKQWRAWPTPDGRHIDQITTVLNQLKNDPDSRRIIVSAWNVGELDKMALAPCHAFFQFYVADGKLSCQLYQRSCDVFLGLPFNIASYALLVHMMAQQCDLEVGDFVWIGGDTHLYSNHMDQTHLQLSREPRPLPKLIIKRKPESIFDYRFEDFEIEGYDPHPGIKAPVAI

Compound	IC50 (Dihydrofolate reductase [2]) [µM]	IC50 (Dihydrofolate reductase [3]) [µM]	Ratio [1]	IC50 [4] [µM]	further results
COc1ccc(OC)c(N(C)Cc2c[nH]c3nc(N)nc(O)c23)c1	–	–	> 6	–	–
COc1ccc(NCc2c[nH]c3nc(N)nc(O)c23)c(OC)c1	16	> 16	> 2.3	–	–
Nc1nc(O)c2c(CNc3cc(Cl)cc(Cl)c3)c[nH]c2n1	–	–	> 15.4	–	–
Nc1nc(O)c2c(CNc3cc(Cl)ccc3Cl)c[nH]c2n1	25	> 25	> 38	0.66	–
COc1cc(NCc2c[nH]c3nc(N)nc(O)c23)cc(OC)c1OC	22	> 22	> 2.4	9.3	–
Nc1nc2[nH]cc(CCc3ccc(C(=O)N[C@@H](CCC(=O)O)C(=O)O)cc3)c2c(=O)[nH]1 [PEMETREXED]	–	–	–	–	IC50 (Thymidylate synthase [5]): 5.7 µM
CN(Cc1cnc2nc(N)nc(N)c2n1)c1ccc(C(=O)N[C@@H](CCC(=O)O)C(=O)O)cc1 [METHOTREXATE]	–	–	–	–	EC50 (A253 cell line): 0.019 µM
COc1cc(NCc2c[nH]c3nc(N)nc(O)c23)cc(OC)c1	–	–	> 8	–	–
COc1ccc(OC)c(NCc2c[nH]c3nc(N)nc(O)c23)c1	47	> 47	> 21	–	EC50 (FaDu [6]): > 10 µM; EC50 (CCRF-CEM [7]): 0.42 µM; EC50 (A253 cell line): > 10 µM; EC50 (CCRF-CEM [8]): 0.46 µM; EC50 (CCRF-CEM [9]): 0.23 µM; EC50 (CCRF-CEM [10]): 1.53 µM
Nc1nc(O)c2c(CNc3ccc(C(=O)N[C@@H](CCC(=O)O)C(=O)O)cc3)c[nH]c2n1	–	–	–	0.8	IC50 (Dihydrofolate reductase [11]): 10 µM; EC50 (FaDu [6]): 0.8 µM; EC50 (CCRF-CEM [7]): 0.2 µM; Relative growth (FaDu [12]): 5; Relative growth (FaDu [13]): 74; IC50 (Thymidylate synthase [14]): > 120 µM; EC50 (A253 cell line): 1 µM; EC50 (CCRF-CEM [8]): 0.12 µM; IC50 (Thymidylate synthase [5]): 46 µM; Relative growth (FaDu [15]): 79; Relative growth (FaDu [16]): 5; EC50 (CCRF-CEM [9]): 0.08 µM; EC50 (CCRF-CEM [10]): 0.31 µM; Relative growth (FaDu [17]): 64
COc1cc(N(C)Cc2c[nH]c3nc(N)nc(O)c23)cc(OC)c1OC	–	–	> 2	–	–
Nc1nc(O)c2c(CNc3cccc(Cl)c3)c[nH]c2n1	–	–	> 7	–	–
Nc1nc(O)c2c(CNc3ccc(Cl)cc3Cl)c[nH]c2n1	–	–	> 7	–	–

More lines, main results first:

IC50 (Dihydrofolate reductase [2]) [µM]	IC50 (Dihydrofolate reductase [3]) [µM]	Compound	Ratio [1]	IC50 [4] [µM]	further results
56	> 56	COc1ccc(OC)c(N(C)Cc2c[nH]c3nc(N)[nH]c(=O)c23)c1	–	10.3	–
15	> 15	Nc1nc2[nH]cc(CNc3ccc(Cl)cc3Cl)c2c(=O)[nH]1	–	–	–
26	> 26	Nc1nc2[nH]cc(CNc3cccc(Cl)c3)c2c(=O)[nH]1	–	–	–
20	> 20	COc1cc(NCc2c[nH]c3nc(N)[nH]c(=O)c23)cc(OC)c1	–	–	–
87	> 87	COc1cc(OC)cc(N(C)Cc2c[nH]c3nc(N)nc(O)c23)c1	> 21	4.2	–
45	> 45	COc1cc(N(C)Cc2c[nH]c3nc(N)[nH]c(=O)c23)cc(OC)c1OC	–	37	–
63	–	Nc1nc2[nH]cc(CNc3cc(Cl)cc(Cl)c3)c2c(=O)[nH]1	–	4.1	–
